SMILES strings stand for the structures. “Also recorded” adds a separate entry of the source.

The subject of assay [1] is chondrocytes of bovine origin. The assay is described as follows: Proliferation of chondrocytes measured through DNA levels (alginate beads). As to conditions: 10 days culture in alginate beads; for effect on DNA levels per alginate bead (in words): 1, 5 and 10 mM, FIG. 1; for increase in DNA levels relative to the control (without compound): 10 mM. The assay is classed as cell-based. The method, then:
Chondrocytes of bovine origin were isolated using digestion with collagenase following a previously described process (B. Beekman et al., Exp. Cell Res., 237, 135-141 (1997)).
The isolated bovine chondrocytes were cultured following a methodology described in the literature (J. DeGroot, et al., 266, 303-310 (2001)). The chondrocytes were transferred to an alginate support matrix, forming alginate beads which contain the cells at a concentration of 2.5×10^6 cells/ml, and DMEM (Dulbecco's Modified Eagle's Medium) with Glutamax was added to them supplemented with ascorbic acid, penicillin, streptomycin and FCS (foetal cow serum). After 24 hours, the medium was renewed and the chondrocytes contained in alginate beads (5 beads/well, with 250 μl of medium/well, in plates of 48 wells) were cultured in the absence (control) or presence of the compound to test (at concentrations of 1, 5 and 10 mM). The medium was regenerated twice a week. At the end of 10 days, the beads were collected (5 beads in each well, n=3 wells per condition) and they were stored at a temperature of −20° C. until making the analysis.
To quantify DNA levels, the beads were digested with papain and Hoechst 33258 (bisbenzimide) dye was used. DNA levels per alginate bead were determined.
(§1) The evaluation of the differences between all compounds and the control condition was assayed using analysis of variance (ANOVA). Then, the LSD test was performed to determine the difference between each compound and the control condition. They were considered statistically significant when p≦0.05.

For a further assay, the system named is bovine chondrocytes. The assay is described as follows: Glycosaminoglycan content per chondrocyte (GAG with respect to DNA). As to conditions: for effect on GAGs levels per chondrocyte (in words): 5 and 10 mM, FIG. 4. The assay is classed as cell-based. The method, then: Bovine chondrocytes were used as starting point and the same methodology was followed as in Example 1 (chondrocyte proliferation measured through DNA levels), but in this case each compound was tested at two concentrations (5 and 10 mM).
The GAG content was determined, after digestion with papain, with the Blyscan™ assay (kit) from Biocolor Ltd.
as §1

Assay [2] relates to chondrocytes of bovine origin. The assay is described as follows: Release of glycosaminoglycans from the chondrocytes in alginate beads after stimulation with IL-1β. Conditions: IL-1β 20 ng/ml, 48 hours; for effect on release of GAGs by the chondrocytes (in words): 10 mM, FIG. 2. The assay is classed as cell-based. The method, then: Chondrocytes of bovine origin were cultured for 21 days in alginate beads as support matrix; approximately 100 beads in 75 cm^2 culture dishes in 25 ml of medium, without adding the compounds to be tested. The medium was regenerated twice a week. After 21 days of culture, the beads were transferred to 48-well plates, 5 beads per well, 250 μl of medium per well. The compounds to be tested were added on day 21 (mannosamine hydrochloride, glucosamine hydrochloride and N-acetylglucosamine) to evaluate the effect on the degradation of the extracellular matrix after stimulation with IL-1β (20 ng/ml). Each compound was tested at concentrations of 1 and 10 mM. In each experiment each concentration was tested at n=3 wells, except in the control (n=8 wells). Once the alginate beads have been incubated with IL-1β (20 ng/ml) and the compounds during 48 hours, the culture medium was collected (day 21 to day 23). The GAGs content in the beads and in the culture medium on day 23 was measured (release of GAGs mediated by aggrecanase). The GAGs content was determined, after digestion with papain, with the Blyscan™ assay (kit) from Biocolor Ltd.
The results were expressed as a percentage of released GAGs with respect to total GAGs.
as §1

Assay [3] has as its system metalloprotease activity (MMP) of the chondrocytes. Description: Metalloprotease activity of the chondrocytes in alginate beads after stimulation with IL-1β and activation with APMA. Format: cell-based, bovine. Conditions: IL-1β 20 ng/ml, 1 mM APMA. The method, then:
Bovine chondrocytes were used as starting point and the methodology of the Example 2 was followed, but in this case each compound was tested at two concentrations (5 and 10 mM).
The chondrocytes were cultured for 21 days in alginate to produce extracellular matrix. After 2 days of stimulation with IL-1β and with or without compounds, the medium was renewed. The metalloprotease activity was then determined in the culture medium after 2 hours of incubation with 20 ng/ml of IL-1β, 1 mM of APMA and with or without the compounds. The metalloprotease activity was quantified using the substrate for metalloproteases TNO 211-F (I. Tchetverikov et al., Clin. Exp. Rheumatol. 21, 711-8 (2003)).
as §1

For the molecule `CC(=O)N[C@H]1C(O)O[C@H](CO)[C@@H](O)[C@@H]1O` (stereo partly shown) [N-acetylglucosamine, reference compound], the “effect on DNA levels per alginate bead (in words)” value in assay [1] is listed as “No significant effect”. For the same molecule, the “effect on GAGs levels per chondrocyte (in words)” value in the assay with bovine chondrocytes was “No significant effect”.

With `CC(=O)N[C@@H]1C(O)O[C@H](CO)[C@@H](O)[C@@H]1O` (stereo partly shown) [N-acetylmannosamine], the “increase of GAG content per chondrocyte with respect to the control (culture without product)” value in the assay with bovine chondrocytes (10 mM) came out at 63%. Moreover, in the assay on bovine chondrocytes, the “effect on GAGs levels per chondrocyte (in words)” value is reported as “dose-dependent increase in GAGs levels per chondrocyte”.

With `Cl.N[C@H]1C(O)O[C@H](CO)[C@@H](O)[C@@H]1O` (stereo partly shown) [glucosamine hydrochloride, reference compound], in assay [1], the “increase in DNA levels relative to the control (without compound)” value was 4 times and the “effect on DNA levels per alginate bead (in words)” value is on record as “dose-dependent increase in DNA levels”. Moreover, the “effect on release of GAGs by the chondrocytes (in words)” value in assay [2] was “reduced the release of GAGs”.

In the case of `Cl.N[C@@H]1C(O)O[C@H](CO)[C@@H](O)[C@@H]1O` (stereo partly shown) [mannosamine hydrochloride], in assay [1], the “increase in DNA levels relative to the control (without compound)” value is 10 times. For the same molecule, in assay [1] (hydrochloride), the “effect on DNA levels per alginate bead (in words)” value is “highest levels of DNA/bead; also recorded: dose-dependent increase in DNA levels”. Further, the “effect on release of GAGs by the chondrocytes (in words)” value in assay [2] is on record as “reduced the release of GAGs”. Moreover, in assay [2] (upper concentration (10 mM)), the “reduction of the release of GAGs with respect to the control (culture without compound)” value is recorded as 30%. Moreover, the “reduction in metalloprotease activity with respect to the control” value in assay [3] (10 mM) is listed as 30%. For the same molecule, the “effect on metalloprotease activity (in words)” value in assay [3] (5 and 10 mM, FIG. 3) is on record as “the only one which reduced metalloprotease activity”.

These data come from patent US20090317444A1, “PROCESS FOR CELL PROLIFERATION” (BIOBERICA, S.A., priority 2006, published 2009).
